# Results as given in patent publication US10125126B2, “N-cycloalkyl-N-[(heterocyclylphenyl)methylene]-(thio)carboxamide derivatives” (BAYER CROPSCIENCE AG, priority 2012, dated 2018).
# Legend:
# Alternaria brassicae = assay: In vivo preventive test on Alternaria brassicae (leaf spot on radish); conditions: 500 ppm of active ingredient; radish plants; 6 days after contamination
# Procedure, shortened: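 Radish plants at cotyledon stage were sprayed with compound; controls got the acetone/tween/DMSO/water mix alone. After 24 h they were inoculated with Alternaria brassicae spores (50 000 spores per mL) and kept at 20 °C, 100% relative humidity. % efficacy versus controls was graded 6 days post-inoculation.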
# Botrytis cinerea = assay: In vivo preventive test on Botrytis cinerea (grey mould); conditions: 500 ppm of active ingredient; gherkin plants; 4 to 5 days after contamination
# Procedure, shortened: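 Gherkin plants at cotyledon stage Z11 were sprayed with compound, then inoculated 24 h later with Botrytis cinerea spores (50 000 spores per mL in nutrient solution). Plants were kept at 17° C and 90% RH, and percent efficacy versus solvent-treated controls was graded 4 to 5 days after contamination.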
# Leptosphaeria nodorum = assay: In vivo preventive test on Leptosphaeria nodorum (wheat); conditions: 500 ppm of active ingredient, evaluated 8 days after inoculation
# Procedure: In Vivo Preventive Test on Leptosphaeria nodorum Test (Wheat) [table] To produce a suitable preparation of active compound, 1 part by weight of active compound or active compound combination is mixed with the stated amounts of solvent and emulsifier, and the concentrate is diluted with water to the desired concentration. To test for preventive activity, young plants are sprayed with the preparation of active compound or active compound combination at the stated rate of application. After the spray coating has been dried, the plants are sprayed with a spore suspension of Leptosphaeria nodorum. The plants remain for 48 hours in an incubation cabinet at approximately 20° C. and a relative atmospheric humidity of approximately 100%.
# Pyrenophora teres = assay: In vivo preventive test on Pyrenophora teres (barley); conditions: 500 ppm of active ingredient; barley plants; 14 days after contamination
# Procedure, shortened: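 Barley ("Plaisant") grown at 22° C was sprayed at the 1-leaf stage (10 cm) with active ingredient in acetone/tween/DMSO/water, with solvent-only controls. After 24 h, leaves were inoculated with Pyrenophora teres spores (12 000 spores per mL) from 12-day cultures. % efficacy versus controls graded 14 days post-contamination.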
# Septoria tritici = assay: In vivo preventive test on Septoria tritici (wheat); conditions: 500 ppm of active ingredient; wheat plants; 24 days after contamination
# Procedure, shortened: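 Scipion wheat grown at 22° C, sprayed at 1-leaf stage (10 cm); controls received acetone/tween/DMSO/water without active. Inoculated 24 h later with S. tritici spores (500 000/mL), held 72 h at 18° C, 100% RH, then 21 days at 90% RH. % efficacy vs controls scored 24 days post-inoculation.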
# Sphaerotheca fuliginea = assay: In vivo preventive test on Sphaerotheca fuliginea (powdery mildew on cucurbits); conditions: Podosphaera fuliginea, 288 h, 500 ppm of active ingredient; gherkin plants; 12 days after contamination; read-out: Efficacy
# Procedure, shortened: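 Gherkin plants ("Vert petit de Paris") grown at 24 °C were sprayed at cotyledon stage Z11; controls received acetone/tween/DMSO/water without active. Inoculation 24 h later by spraying cotyledons with 100 000 spores/mL. Efficacy (%) graded 12 days post-contamination versus controls.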
# Uromyces appendiculatus = assay: In vivo preventive test on Uromyces appendiculatus (bean rust); conditions: 500 ppm of active ingredient; bean plants; 11 days after contamination
# Procedure, shortened: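 Saxa bean plants at 2-leaf stage, grown at 24° C., sprayed preventively with compound; 24 h later inoculated with U. appendiculatus spores (150 000 spores per mL). Percent efficacy graded 11 days after inoculation versus solvent-treated controls.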
# Venturia inaequalis = assay: In vivo preventive test on Venturia inaequalis (apples); conditions: 100 ppm of active ingredient, evaluated 10 days after inoculation
# Procedure: In Vivo Preventive Test on Venturia inaequalis (apples) [table] To produce a suitable preparation of active compound, 1 part by weight of active compound is mixed with the stated amounts of solvent and emulsifier, and the concentrate is diluted with water to the desired concentration. To test for preventive activity, young plants are sprayed with the preparation of active compound at the stated rate of application. After the spray coating has dried on, the plants are inoculated with an aqueous conidia suspension of the causal agent of apple scab (Venturia inaequalis) and then remain for 1 day in an incubation cabinet at approximately 20° C. and a relative atmospheric humidity of 100%. The plants are then placed in a greenhouse at approximately 21° C. and a relative atmospheric humidity of approximately 90%.
compound,measurement,setting,value
"CC(C)c1ccc(-c2csc3ccccc23)cc1CN(C(=O)c1c(C(F)F)nn(C)c1F)C1CC1 [I.157, N-[5-(1-benzothiophen-3-yl)-2-isopropylbenzyl]-N-cyclopropyl-3-(difluoromethyl)-5-fluoro-1-methyl-1H-pyrazole-4-carboxamide]",Efficacy,Alternaria brassicae,100%
same,Efficacy,Botrytis cinerea,100%
same,Efficacy,Leptosphaeria nodorum,100%
same,Efficacy,Pyrenophora teres,93%
same,Efficacy,Septoria tritici,90%
same,pest or weed control at 500 ppm,Sphaerotheca fuliginea,100%
same,Efficacy,Uromyces appendiculatus,100%
same,Efficacy,Venturia inaequalis,100%
